Usually Ki stands for a dissociation constant, usually derived from enzyme kinetics or from competition with a known ligand.

Experimental findings from patent US20220193029A1, “BRYOSTATIN COMPOUNDS FOR ENHANCEMENT OF IMMUNOTHERAPY” (priority 2019, published 2022) are described below.

One assay relates to PKC. As to the kind of experiment: cell-free PKC binding assay, isoform not given. On the set-up: species or system human. The procedure:
(§1) Because a prerequisite for PKC pathway involvement is binding to PKC, compounds were initially evaluated for PKC affinity in a cell-free competitive binding assay with tritiated phorbol dibutyrate ([^3H]-PDBu). Assays were performed with representative members of both the conventional (PKCα) and novel (PKCδ) PKC families. Subsequently, compounds were assayed for PKC activation in living cells using an isoform translocation assay.
(§2) Assay PKC was prepared by dissolving a 4 μg aliquot of the indicated recombinant human PKC isoform (Invitrogen) into 11.6 mL of PKC binding assay buffer (this amount is sufficient for two assays). The diluted PKC was stored on ice for immediate use.
(§3) Triplicate data points were obtained for each analog concentration. For each data point, 280 μL of “Master Mix” Solution and 20 μL of analog compound at a specified concentration were added to a polypropylene tube. […] Maximal ^3H-PDBu binding was assessed in triplicate by substitution of the analog compound with 20 μL DMSO. The solutions were vortexed to mix, incubated at 37° C. for 10 min, and incubated on ice for at least 30 min prior to filtration. Using a Brandel Harvester, the assay contents from each polypropylene tube were vacuum-filtered through polyethylenimine-soaked filters, washing with rinsing buffer (3×) and drying first under vacuum for 5 min and then under ambient conditions for ≥2 h. The resulting filters had circular perforations for each data point, which were removed with forceps and placed in a scintillation vial. Scintillation vials were filled with Bio-Safe II scintillation fluid (5 mL) and measured for radioactivity using a Beckman LS 6000SC scintillation counter. Counts per minute (cpm) were averaged for each triplicate dilution. The data were plotted—cpm vs. log(concentration)—using Prism® by GraphPad Software and an IC50 was determined using that program's built-in one-site competition least squares regression function. Ki values were calculated using the equation: Ki=IC50/(1+([3H−PDBu]/Kd)). The Kd of ^3H-PDBu for PKC isoforms was measured separately via saturation binding experiments under identical conditions.

The next assay relates to PKCδ-GFP fusion protein. Briefly: PKCδ-GFP translocation assay in living CHO-k1 cells (confocal microscopy). Type of assay: cell-based, Chinese hamster. The conditions noted are these: for cytosolic PKC translocated to the plasma membrane: 1000 nM, at about 5 minutes; for concentration* (minimum effective concentration required to induce translocation of PKC-GFP to the membrane) / % Translocation: CHO-k1 cells; for % Translocation: maximum translocation of PKCδ-GFP to the plasma membrane at the concentration printed in the same cell, SUW212: only brief translocation observed. The procedure:
as §1
Chinese hamster ovary factor K1 (CHO-k1, ATCC) cells were cultured in F-12 Kaighn's media (Hyclone, 10% fetal bovine serum, 1% penicillin/streptomycin added, referred to as F-12+/+ below) at 37° C. in an incubator (5% CO2). Cell cultures were maintained by splitting cells 1:3 when they reached ˜75-100% confluence (every 2-3 days) as follows:
1 mL of the cell suspension was then added to 9 mL of fresh F-12+/+ and the sample was sub-cultured until reaching confluence (˜2-3 days).
Cells were counted using a Countess II Automated Cell Counter (Fisher). The cell suspension was diluted to 240,000 cells/mL with fresh F-12+/+ and 2.5 mL of this diluted stock was added to one well in a 6-well plate. The cells were then cultured for 24 hours.
F-12+/+ was aspirated and cells were washed with F-12−/−. 2 mL of fresh F-12−/− was then added to each well, taking care not to disturb adherent cells. For each well of CHO-k1 cells, 12.5 μL Lipofectamine 2000 reagent (Invitrogen) was added to 250 μL Opti-MEM reduced serum media (Invitrogen) in a polypropylene tube and incubated for 20 minutes at RT. Meanwhile, for each well, 4 μg of PKCδ-GFP pDNA and 250 μL Opti-MEM reduced serum media was added to a separate polypropylene tube. 250 μL of the Lipofectamine 2000 suspension was added to the DNA suspension and the solution incubated for 30 minutes at RT. 500 μL of the Lipofectamine/DNA suspension was added to the respective wells of the 6-well plate. The cells were then incubated at 37° C. (5% CO2) for ˜24 hrs.
F-12+/+ was aspirated and cells were washed with F-12−/−. 2.4 mL of fresh F-12−/− was then added to each well, taking care not to disturb adherent cells. A 4 μg aliquot of PKCδ-GFP pDNA was added to PBS (pH 5.5, final volume 100 μL). 5.6 μL of DA 13:11 (2 mM stock in DMSO) was then added to the DNA solution, and the mixture was gently mixed (by flicking) for 20 seconds, at which point it was added directly to the respective wells of the 6-well plate. The cells were then incubated at 37° C. (5% C02) for ˜24 hrs.
After incubation, the media was aspirated and cells were washed with PBS (2.0 mL) and trypsinized (500 μL). The cell suspension was then diluted with 2.0 mL F-12+/+. 200 μL aliquots were added to 3 wells of a Lab-Tek II 4-well chambered coverglass slide (Fisher), producing 4 slides in total, each with three wells of cells. The cell suspension was directly diluted with 600 μL of additional F-12+/+. The resulting samples were incubated for ˜24 hrs. prior to imaging.
Fluorescent images were obtained using a Leica SP8 White Light Confocal microscope and the Leica AF software package. Prior to analysis, media was aspirated and 800 μL of PBS (Hyclone, without Ca^2+ or Mg^2+) supplemented with glucose (10 mM) was added to each well of the chambered coverglass slide. Bryostatin and bryostatin analogs were diluted to the appropriate concentration in 200 μL of 10 mM glucose in PBS. Cells were located for imaging and data was recorded for three wells in parallel, imaging at predetermined positions in each well using adaptive focus control. Cells were imaged at 30 second intervals following the addition of compound (set to t=0) for 20-40 minutes. Data were recorded at room temperature. Images were exported as .lif files and fluorescence intensity was analyzed using FIJI (NIH) software.

In the next assay the target is T1, PKCδ (Homo sapiens, UniProt Q05655).
T1 construct: purchased Invitrogen
T1 sequence (Q05655 whole entry): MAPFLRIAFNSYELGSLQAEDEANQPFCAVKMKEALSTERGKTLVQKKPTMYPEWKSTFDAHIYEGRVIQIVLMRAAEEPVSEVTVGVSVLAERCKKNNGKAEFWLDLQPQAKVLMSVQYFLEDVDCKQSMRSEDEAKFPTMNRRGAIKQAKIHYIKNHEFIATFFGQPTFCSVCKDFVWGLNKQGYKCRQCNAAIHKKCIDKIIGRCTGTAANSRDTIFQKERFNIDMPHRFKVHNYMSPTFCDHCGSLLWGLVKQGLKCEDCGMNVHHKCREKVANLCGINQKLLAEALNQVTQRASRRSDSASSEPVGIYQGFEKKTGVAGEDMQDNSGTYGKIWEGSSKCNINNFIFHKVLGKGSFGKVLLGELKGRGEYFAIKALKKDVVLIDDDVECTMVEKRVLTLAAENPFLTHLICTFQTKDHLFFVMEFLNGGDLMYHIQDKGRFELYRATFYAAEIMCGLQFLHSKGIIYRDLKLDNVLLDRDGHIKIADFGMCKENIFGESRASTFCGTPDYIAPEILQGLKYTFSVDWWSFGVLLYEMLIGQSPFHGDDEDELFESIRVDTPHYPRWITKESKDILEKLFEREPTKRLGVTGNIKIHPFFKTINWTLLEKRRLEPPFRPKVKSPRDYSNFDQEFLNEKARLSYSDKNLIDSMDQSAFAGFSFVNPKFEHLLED
As to the kind of experiment: cell-free competitive PKC binding assay with [3H]-phorbol dibutyrate. The conditions noted are these: competition with [3H]-PDBu, recombinant human PKC isoform. The procedure: as §1
(§4) To a 50 mL polypropylene tube was added Tris-HCl (pH 7.4, 1 M, 1 mL), KCl (1 M, 2 mL), CaCl2) (0.1 M, 30 μL), and bovine serum albumin (BSA, 40 mg, Sigma-Aldrich). This mixture was diluted to 20 mL with deionized H2O and mixed gently. The buffer was stored on ice until use.
(§5) For every two assays, 3.5 mg phosphatidylserine (Avanti Polar Lipids, porcine, 25 mg/mL CHCl3 solution) was concentrated by removing chloroform under a stream of nitrogen followed by reduced pressure. The solid PS was suspended as vesicles in freshly prepared PKC binding assay buffer (3.5 mL) by sonicating six times for 30 sec, with a 30 sec rest between sonications (Branson Sonifier 250, power=2, 50% duty cycle). The resulting milky cloudy mixture (1 mg/mL) was stored on ice until use.
as §2
(§6) ^3H-PDBu (American Radiolabeled Chemicals, Inc.; 1 mCi/mL acetone solution; specific activity: 20 Ci/mmol) was diluted […] with DMSO. The resulting 500 nM stock solution was further diluted with DMSO to 30 nM.
(§7) Compound dilutions were prepared by serially diluting from a chosen “high” concentration by factors of 3 or 4.
(§8) To a polypropylene tube was added 3.3 mL of 1 mg/mL PS vesicles solution, 11 mL of PKC isoform solution, and 1.1 mL of 30 nM ^3H-PDBu solution were added. The resulting solution was vortexed to mix and stored on ice.
(§9) Materials: • Glass-fiber filters (Whatman GF/B) were prepared by soaking them in a solution of aqueous polyethyleneimine (10% by vol, 18 mL) in deionized water (600 mL) for ≥1 h. • 500 mL “rinsing buffer” of 20 mM Tris, pH 7.4 was cooled on ice for the duration of the incubation period and for the remainder of the assay.
Triplicate data points were obtained for each analog concentration. For each data point, 280 μL of “Master Mix” Solution and 20 μL of analog compound at a specified concentration were added to a polypropylene tube. […] Maximal ^3H-PDBu binding was assessed in triplicate by substitution of the analog compound with 20 μL DMSO. The solutions were vortexed to mix, incubated at 37° C. for 10 min, and incubated on ice for at least 30 min prior to filtration. Using a Brandel Harvester, the assay contents from each polypropylene tube were vacuum-filtered through polyethylenimine-soaked filters, washing with rinsing buffer (3×) and drying first under vacuum for 5 min and then under ambient conditions for ≥2 h. The resulting filters had circular perforations for each data point, which were removed with forceps and placed in a scintillation vial. Scintillation vials were filled with Bio-Safe II scintillation fluid (5 mL) and measured for radioactivity using a Beckman LS 6000SC scintillation counter. Counts per minute (cpm) were averaged for each triplicate dilution. The data were plotted—cpm vs. log(concentration)—using Prism® by GraphPad Software and an IC50 was determined using that program's built-in one-site competition least squares regression function. […] The Kd of ^3H-PDBu for PKC isoforms was measured separately via saturation binding experiments under identical conditions.

In another assay the target is T2, PKCα (Homo sapiens, UniProt P17252).
T2 construct: purchased Invitrogen
Described as above. The conditions noted are these: competition with [3H]-PDBu, recombinant human PKC isoform. The procedure:
as §1, §4, §5, §2, §6, §7, §8, §9, §3

Assay [1] deals with CD22 surface expression in JB cells. As to the kind of experiment: CD22 surface expression assay, AIDS-NHL cell line JB. The following applies: 1 nM or 10 nM, 48 hours.
Protocol: (§10) AIDS-NHL cell lines were incubated in IF10 medium, consisting of IMDM medium (Life technologies) containing 10% fetal bovine serum (FBS, Omega Scientific), 100 units/mL of penicillin, and 100 μg/ml of streptomycin (Invitrogen). Cells were incubated at 37° C. in 5% CO2.
(§11) Cells were exposed to compound for the either 24 or 48 h before staining and flow cytometric analysis of receptor levels.
(§12) Cells in each well were washed with phosphate buffered saline (PBS) containing 2% FBS, then cells were centrifuged for 9 min at 233 xg and resuspended in 50 μL of a 1:1 dilution of phosphate buffered saline (PBS): Human AB serum (Sigma). […] Stained samples were stored at 4° C. Flow cytometry samples were analyzed using a FACSCelesta (BD Biosciences) flow cytometer and data were analyzed using FlowJo software (version 10).
(§13) Panel C: JB cells were incubated with 1 nM (left hand bars) or 10 nM (right hand bars) of compound for 48 hours. CD22 surface expression was then assayed by flow cytometry (n=6 biological replicates; data presented as mean values ±SE). Panel D: 2F7 cells were incubated with 1 nM (left hand bars) or 10 nM (right hand bars) of compound for 48 hours. CD22 surface expression was then assayed by flow cytometry (n=6 biological replicates; data presented as mean values ±SE).
The test system of the next assay is NALM6 tumor cells. As to the kind of experiment: NSG mice with NALM6 tumor cells treated with CD22 CAR T cells plus bryostatin 1. The conditions noted are these: NALM6 tumor cells day 0, CD22 CAR day 3, bryostatin 1 three times weekly for 2 weeks.
Assay [2] relates to CD22 surface expression in NALM6 cells. Briefly: CD22 surface expression assay by flow cytometry. The class given is cell-based, human. The procedure:
Cell cultures were maintained between 4×10^5 and 3×10^6 cells/mL according to vendor instructions.
Cell suspension from a confluent T75 flask (Fisher) was transferred to a 15 mL falcon tube and centrifuged at 1100 rpm for 7 minutes. […] Cells were counted using a Countess II Automated Cell Counter (Fisher). […] 199 μL of this stock was added to 24 wells (enough for triplicate measurements for 8 different experimental conditions) in a 96-well plate. […] 1 μL of DMSO or the appropriate stock solution of compound in DMSO was added to each well. Cells were incubated for 24 hours, at which point the cell suspensions were transferred to 1.5 mL Eppendorf tubes and diluted with 1.0 mL of PBS (Hyclone, without Ca^2+ or Mg^2+). Samples were centrifuged at 2000 rpm for 5 min at RT. […] Cells were sub-cultured between 2×10^5 and 3×10^6 cells/mL in 24-well plates for an additional 24 hrs-7 days, at which point CD22 surface expression was assayed by flow cytometry.
Cells from one well were counted using a Countess II Automated Cell Counter (Fisher). ˜200,000-300,000 cells from each well were added to 1.5 mL Eppendorf tubes containing PBS (final volume ˜1.2 mL). The cell suspensions were centrifuged at 1500 rpm for 7 minutes at 4° C. The supernatant was aspirated, and the cell pellet was resuspended in 99 μL of pre-chilled FACS buffer (0.5% w/v BSA in PBS). […] Samples were then diluted with an additional 1.0 mL of FACS buffer and centrifuged at 1500 rpm for 7 minutes at 4° C. […] Cells were stained with DAPI and CD22 surface expression was analyzed using the FACScan Analyzer at the Stanford Shared FACS Facility. Data analysis was performed using FlowJo and Microsoft Excel.
A general note: A flow cytometer gives signals particle by particle.

Assay [3] deals with CD22 surface expression in 2F7 cells. Briefly: CD22 surface expression assay, AIDS-NHL cell line 2F7. The following applies: 1 nM or 10 nM, 48 hours.
Protocol: as §10, §11, §12, §13

Some results are limits rather than exact numbers.

Description for NALM6 tumor cells: Mice were imaged using IVIS™ technology and luciferin-D IP injections.

Consider `CCCC=CC=CC(=O)OC1C(=CC(=O)OC)CC2CC(C(C)O)OC(=O)CC(O)CC3CC(OC(C)=O)C(C)(C)C(O)(CC4CC(OC(=O)CCc5c[nH]c6ccccc56)CC(C=CC(C)(C)C1(O)O2)O4)O3` (stereo not drawn) [SUW210], for which the “binding affinity to PKC, in words” value with PKC is “high affinity PKC binders”. Also, in the assay with PKCδ-GFP fusion protein, the “activity in the PKC translocation assay at 200 nM” value is “inactive”, the “cytosolic PKC translocated to the plasma membrane” value is listed as roughly 70%, the “concentration* (minimum effective concentration required to induce translocation of PKC-GFP to the membrane)” value is 1000 nM and the “% Translocation” value is given as 75%. The inhibition constant Ki at PKCδ is 7.3 nM. The Ki on PKCα stood at 5.6 nM.
Regarding `CCC/C=C/C=C/C(=O)O[C@H]1/C(=C/C(=O)OC)C[C@H]2C[C@H]([C@@H](C)O)OC(=O)C[C@H](O)C[C@@H]3C[C@H](OC(C)=O)C(C)(C)[C@](O)(C[C@@H]4C/C(=C/C(=O)OC)C[C@H](/C=C/C(C)(C)[C@]1(O)O2)O4)O3` [Bryostatin 1, reference compound], the “binding affinity to PKC, in words” value in the assay with PKC is recorded as “single digit nanomolar binder”. Further, the “upregulated CD22 surface expression” value in assay [1] and in assay [3] was roughly 2 fold throughout. In addition, in the assay with NALM6 tumor cells, the “durability of response to CD22 CAR T cell treatment” value is “improves durability of response”. Further, in assay [2] (10 nM for 24 hours, then washed out and sub-cultured), the “time for which increased CD22 surface expression was sustained following treatment” value was “up to 7 days”. In addition, in assay [2] (NALM6 cells incubated 24 hours, flow cytometry), the “increase in CD22 surface density” value is on record as greater than 2 fold. The inhibition constant Ki on PKCα was found to be 0.8 nM.
`CCCC=CC=CC(=O)OC1C(=CC(=O)OC)CC2CC(C(C)O)OC(=O)CC(O)CC3CC(OC(C)=O)C(C)(C)C(O)(CC4CC(OC(=O)CC56CC7CC(CC(C7)C5)C6)CC(C=CC(C)(C)C1(O)O2)O4)O3` (stereo not drawn) [SUW209]: the “binding affinity to PKC, in words” value with PKC is “high affinity PKC binders”. In the assay with PKCδ-GFP fusion protein, the “activity in the PKC translocation assay at 200 nM” value is “inactive”, the “cytosolic PKC translocated to the plasma membrane” value is listed as roughly 70%, the “concentration* (minimum effective concentration required to induce translocation of PKC-GFP to the membrane)” value is 1000 nM and the “% Translocation” value was determined as 60%. In addition, the inhibitory constant (Ki) on PKCδ was 3.5 nM. The Ki on PKCα worked out at 1.6 nM.
As to `CCCC=CC=CC(=O)OC1C(=CC(=O)OC)CC2CC(C(C)O)OC(=O)CC(O)CC3CC(OC(C)=O)C(C)(C)C(O)(CC4CC(=CC(=O)OC)CC(C=CC(C)(C)C1(O)O2)O4)O3` (stereo not drawn) [SUW201], the “upregulated CD22 surface expression” value in assay [1] and in assay [3] was roughly 2 fold each time. The Ki on PKCα was 0.54 nM.
